# According to patent publication US4526892A, “Dimethylaminoalkyl-3-(ergoline-8'βcarbonyl)-ureas” (Farmitalia Carlo Erba, S.p.A., priority 1982, dated 1985):
# Key:
# [1] = system: spontaneously hypertensive male rats, strain SHR; test: Anti-hypertensive activity: change in blood pressure (BP) in SHR rats; format: in vivo, rat; settings: for Hypotensive activity vs Hydralazine: compound 25 mg/kg vs Hydralazine 5 mg/kg; for Tolerance on the 4th day: compound 25 mg/kg, unlike Hydralazine
# Experimental: (§1) Four spontaneously hypertensive male rats, strain SHR, weighing 250-300 g for each group were used. The animals were treated once a day for four consecutive days. Drugs were administered by gastric gavage, suspended in 5% gum arabic (0.2 ml/100 g body weight) and blood pressure (BP) and heart rate (HR) were measured by indirected tail/cuff method (BP Recorder W+W). Blood pressure and heart rate were measured on the first and fourth days of treatment 1 hour before and 1 and 5 hours after drug administration. Hydralazine and α-methyl-Dopa were used as reference drugs.
# [2] = system: spontaneously hypertensive male rats, strain SHR; test: Change in heart rate (HR) in SHR rats; format: in vivo, rat
# Experimental: as §1
# mice [3] = test: Acute toxicity: orientative toxicity in mice; format: in vivo, mouse; settings: per os, observed for seven days
# Description: The male mice for each group were orally treated with drugs at different dose levels for the determination of orientative toxicity.
# mice [4] = settings: per os, data of LD50 from the literature; cited from earlier work
# [5] = 5 mg/kg os, 1st day, 1 hour after dosing
# [6] = 5 mg/kg os, 1st day, 5 hours after dosing
# [7] = 5 mg/kg os, 4th day, 1 hour after dosing
# [8] = 5 mg/kg os, 4th day, 5 hours after dosing
# [9] = 25 mg/kg os, 1st day, 1 hour after dosing
# [10] = 25 mg/kg os, 1st day, 5 hours after dosing
# [11] = 25 mg/kg os, 4th day, 1 hour after dosing
# [12] = 25 mg/kg os, 4th day, 5 hours after dosing
# [13] = 30 mg/kg os, 1st day, 1 hour after dosing
# [14] = 30 mg/kg os, 1st day, 5 hours after dosing
# [15] = 30 mg/kg os, 4th day, 1 hour after dosing
# [16] = 30 mg/kg os, 4th day, 5 hours after dosing
# [17] = 100 mg/kg os, 1st day, 1 hour after dosing
# [18] = 100 mg/kg os, 1st day, 5 hours after dosing
# [19] = 100 mg/kg os, 4th day, 1 hour after dosing
# [20] = 100 mg/kg os, 4th day, 5 hours after dosing
Structure (SMILES),"Change in BP [1, 5] [mmHg]","Change in BP [1, 6] [mmHg]","Change in BP [1, 7] [mmHg]","Change in BP [1, 8] [mmHg]","Change in BP [1, 9] [mmHg]","Change in BP [1, 10] [mmHg]","Change in BP [1, 11] [mmHg]","Change in BP [1, 12] [mmHg]",Hypotensive activity vs Hydralazine [1],Tolerance on the 4th day [1],"Change in HR [2, 5] [beats/minute]","Change in HR [2, 6] [beats/minute]","Change in HR [2, 7] [beats/minute]","Change in HR [2, 8]","Change in HR [2, 9]","Change in HR [2, 10] [beats/minute]","Change in HR [2, 11] [beats/minute]","Change in HR [2, 12] [beats/minute]",Orientative toxicity in mice (mice [3]) [mg/kg],"Effect on BP (in words) ([1]; 25 mg/kg, 1st and 4th days)",also measured
"CO[C@]12C[C@@H](C(=O)N(C(=O)NC3CCCCC3)C3CCCCC3)CN(C)[C@@H]1Cc1cn(C)c3cccc2c13 [Example 10, 1,3-dicyclohexyl-3-(10'α-methoxy-1',6'-dimethylergoline-8'β-carbonyl)-urea]",-11,-22,-15,-16,-26,-41,-51,-40,comparable to that of Hydralazine,no tolerance on the 4th day,-5,-20,-20,+15 beats/minute,-2 beats/minute,-12,-17,-20,> 800,,"Effect on BP (in words) ([1]; os, all tested doses of the compound): a decrease of BP was observed; this effect was long lasting"
"CN1C[C@H](C(=O)N(C(=O)NC2CCCCC2)C2CCCCC2)C[C@@H]2c3cccc4[nH]cc(c34)C[C@H]21 [Example 7, 1,3-dicyclohexyl-3-(6'-methylergoline-8'β-carbonyl)urea]",-12,-10,-15,-7,-30,-57,-30,-10,comparable to that of Hydralazine,no tolerance on the 4th day,0,-10,0,0 beats/minute,+5 beats/minute,-20,-17,-2,> 800,significant decrease BP,Effect on BP (in words) ([1]; 5 mg/kg): the antihypertensive effect was less remarkable
"CO[C@]12C[C@@H](C(=O)N(C(=O)NC3CCCCC3)C3CCCCC3)CN(C)[C@@H]1Cc1c[nH]c3cccc2c13 [Example 9, 1,3-dicyclohexyl-3-(10'α-methoxy-6'-methylergoline-8'β-carbonyl)-urea]",,,,,-30,-37,-5,-23,comparable to that of Hydralazine,no tolerance on the 4th day,,,,,-20 beats/minute,-10,0,-20,> 800,,"Effect on BP (in words) ([1]; 25 mg/kg, 1st day): marked decrease of BP; Effect on BP (in words) ([1]; 25 mg/kg, 4th day, first hour after dosing): the hypotensive effect was still observed on the fourth day even if less remarkable"
"C[C@](N)(Cc1ccc(O)c(O)c1)C(=O)O [α-methyl-Dopa, reference compound]",,,,,,,,,,,,,,,,,,,,,"Change in BP [1, 13]: -10 mmHg; Change in BP [1, 14]: -20 mmHg; Change in BP [1, 15]: -10 mmHg; Change in BP [1, 16]: 0 mmHg; Change in BP [1, 17]: -10 mmHg; Change in BP [1, 18]: -25 mmHg; Change in BP [1, 19]: -20 mmHg; Change in BP [1, 20]: -25 mmHg; Change in HR [2, 13]: +35 beats/minute; Change in HR [2, 14]: +40 beats/minute; Change in HR [2, 15]: +45 beats/minute; Change in HR [2, 16]: +30 beats/minute; Change in HR [2, 17]: +70 beats/minute; Change in HR [2, 18]: +40 beats/minute; Change in HR [2, 19]: +50 beats/minute; Change in HR [2, 20]: +10 beats/minute; Effect on HR (in words) ([2]; SHR rats, os): increase of HR; LD50 (orientative toxicity column) (mice [4]): 5300 mg/kg"
"C=CCN1C[C@H](C(=O)N(C(=O)NC2CCCCC2)C2CCCCC2)C[C@@H]2c3cccc4[nH]cc(c34)C[C@H]21 [Example 15, 1,3-dicyclohexyl-3-(6'-allylergoline-8'β-carbonyl)-urea]",,,,,-35,-27,-47,-38,,,,,,,-20 beats/minute,-20,-27,-10,> 800,decrease in BP both on the 1st and 4th days of treatment but more pronounced on the 4th day,Hypotensive activity vs Hydralazine ([1]; 4th day): much more remarkable; Hypotensive activity vs Hydralazine ([1]; first day): comparable to that of Hydralazine
